In patent US20260201008A1, “SECRETIN-DERIVED GLP1R SELECTIVE AGONISTS” (GUBRA A/S, priority 2023, published 2026):
Read-outs that look alike come from different tables or passages of the source. Numbered stars: 1 amine (or outer) side, 2 acyl side, 3 side chain; on linkers, the order of the positions; unused ones are H or OH. Square brackets hold non-standard residues; d marks the D form. Side chains are listed from the residue outwards. Peptide text beside a SMILES is read from it. * marks the point of attachment. C20 diacid = O=C(O)CCCCCCCCCCCCCCCCCCC(=O)*; γGlu = O=C(O)[C@H](CCC(=O)[*:2])N[*:1]; AEEA = NCCOCCOCC(=O)O; Aib = CC(C)(N)C(=O)O

Experiments:
[1] = Turbidity of crude library peptides (absorbance at 600 nm); format: physicochemical; settings: Physical stability of peptides
Summary of the method: (§1)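 Turbidity is the absorbance at 600 nm, taken before heating. Fibril signal is the mean ThT emission at 480 nm (450 nm excitation), read every 10 min over 72 h at 40° C with 700 rpm shaking between reads. Peptides at 267 μM, pH 4.0 acetate or pH 7.0 phosphate buffer (50 mM), 4 μM ThT final.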

[2] = Fibril formation of crude library peptides (Thioflavin T); format: physicochemical; parameters: key: average ThT fluorescence emission at 480 nm (ex 450 nm), raw units; settings: Physical stability of peptides
Summary of the method: as §1

GLP1R = GLP1R (Homo sapiens, UniProt P43220); test: hGLP1R potency, cAMP accumulation in CHO-K1 cells stably overexpressing hGLP1R; format: cell-based; parameters: host or cells: CHO-K1; settings: for EC50: cAMP accumulation, CHO-K1 cells overexpressing hGLP1R; for SCTR EC50/GLP1R EC50 ratio: selectivity for hGLP1R over hSCTR, cAMP accumulation in CHO-K1 cells
Chain of GLP1R (P43220 24-463): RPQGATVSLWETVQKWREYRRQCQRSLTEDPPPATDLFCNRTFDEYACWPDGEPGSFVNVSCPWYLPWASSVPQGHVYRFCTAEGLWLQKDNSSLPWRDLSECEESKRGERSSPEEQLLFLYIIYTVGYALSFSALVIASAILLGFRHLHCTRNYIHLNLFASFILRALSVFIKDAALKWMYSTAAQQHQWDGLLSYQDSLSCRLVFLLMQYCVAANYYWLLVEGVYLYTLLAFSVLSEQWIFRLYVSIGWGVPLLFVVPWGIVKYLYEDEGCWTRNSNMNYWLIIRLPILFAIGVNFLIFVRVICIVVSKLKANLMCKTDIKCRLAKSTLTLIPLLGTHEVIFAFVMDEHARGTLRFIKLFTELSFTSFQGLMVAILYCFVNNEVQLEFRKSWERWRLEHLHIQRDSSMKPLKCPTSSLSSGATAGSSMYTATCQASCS
Summary of the method: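 EC50 derives from variable-slope nonlinear regression of cAMP HTRF signal, with purified peptides tested as 11 three-fold dilutions in duplicate. Assay: hGLP1R-overexpressing CHO-K1 cells, 0.5 mM IBMX, 0.05% casein in DPBS, 30 min room-temperature stimulation, GLP-1(7-36) as reference agonist.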

SCTR = SCTR (Homo sapiens, UniProt P47872); test: hSCTR potency, cAMP accumulation in CHO-K1 cells stably overexpressing hSCTR; format: cell-based; parameters: alternatively Euroscreen ES-712-AF; FAST-0161L; host or cells: CHO-K1; settings: cAMP accumulation, CHO-K1 cells overexpressing hSCTR
Chain of SCTR (P47872 23-440): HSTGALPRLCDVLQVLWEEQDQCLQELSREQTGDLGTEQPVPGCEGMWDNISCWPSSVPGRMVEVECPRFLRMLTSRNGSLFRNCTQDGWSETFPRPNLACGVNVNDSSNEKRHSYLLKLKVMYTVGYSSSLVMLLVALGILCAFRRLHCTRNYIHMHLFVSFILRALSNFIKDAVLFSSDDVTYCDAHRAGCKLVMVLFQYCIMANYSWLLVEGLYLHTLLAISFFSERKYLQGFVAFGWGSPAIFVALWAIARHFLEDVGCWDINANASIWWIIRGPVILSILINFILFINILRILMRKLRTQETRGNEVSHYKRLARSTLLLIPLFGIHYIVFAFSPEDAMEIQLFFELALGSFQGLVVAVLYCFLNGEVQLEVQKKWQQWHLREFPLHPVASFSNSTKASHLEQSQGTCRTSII
Summary of the method: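 EC50 derived from variable-slope nonlinear regression on 11-point, 3-fold series run in duplicate (crude peptides: 5 points, 10-fold, n=1). Compound stimulation lasted 30 min at room temperature in casein/IBMX-containing DPBS (0.05%, 0.5 mM), 2000 cells/well; cAMP detected by time-resolved FRET after one hour.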

[3] = read-out: hSCTR pEC50 (converted)

SMILES | Turbidity (pH 7) [1] | Fibril formation [2] | EC50 (GLP1R; read-out: hGLP1R pEC50 (converted)) | SCTR EC50/GLP1R EC50 ratio (GLP1R) | EC50 (SCTR; [3]) | Selectivity (GLP1R; SCTR EC50/GLP1R EC50 ratio) | EC50 (GLP1R; read-out: pEC50 hGLPR1 (converted)) | EC50 (SCTR; read-out: pEC50 hSCTR (converted))
CC[C@H](C)[C@H](NC(=O)[C@H](Cc1ccccc1)NC(=O)[C@H](CCCNC(=N)N)NC(=O)[C@H](CCC(N)=O)NC(=O)[C@H](CC(C)C)NC(=O)[C@H](C)NC(=O)[C@H](C)NC(=O)CNC(=O)[C@H](CCC(=O)O)NC(=O)[C@H](CC(C)C)NC(=O)[C@H](CC(C)C)NC(=O)[C@H](CCCNC(=N)N)NC(=O)[C@H](CO)NC(=O)[C@@H](NC(=O)[C@H](CC(=O)O)NC(=O)[C@H](CO)NC(=O)[C@@H](NC(=O)[C@H](Cc1ccccc1)NC(=O)[C@@H](NC(=O)CNC(=O)[C@H](CCC(=O)O)NC(=O)C(C)(C)NC(=O)[C@@H](N)Cc1c[nH]cn1)[C@@H](C)O)[C@@H](C)O)C(C)C)C(=O)N[C@@H](CCC(N)=O)C(=O)N[C@@H](Cc1c[nH]c2ccccc12)C(=O)N[C@@H](CC(C)C)C(=O)N[C@H](C(N)=O)C(C)C [compound 178] (H-H[Aib]EGTFTSDVSRLLEGAALQRFIQWLV-NH2) | 0.77 | 29072 | 0.0631 nM | 891 | 63.1 nM | – | – | –
CC(C)C[C@H](NC(=O)[C@H](Cc1ccccc1)NC(=O)[C@H](CCCNC(=N)N)NC(=O)[C@H](CCC(N)=O)NC(=O)[C@@H](NC(=O)C(C)(C)NC(=O)[C@H](C)NC(=O)[C@H](CCC(=O)O)NC(=O)[C@H](CCC(=O)O)NC(=O)[C@H](CCCCNC(=O)COCCOCCNC(=O)COCCOCCNC(=O)CC[C@H](NC(=O)CCCCCCCCCCCCCCCCCCC(=O)O)C(=O)O)NC(=O)[C@H](CC(C)C)NC(=O)[C@H](Cc1ccc(O)cc1)NC(=O)[C@H](CO)NC(=O)[C@@H](NC(=O)[C@H](CC(=O)O)NC(=O)[C@H](CO)NC(=O)[C@@H](NC(=O)[C@H](Cc1ccccc1)NC(=O)[C@@H](NC(=O)CNC(=O)[C@H](CCC(=O)O)NC(=O)C(C)(C)NC(=O)[C@@H](N)Cc1c[nH]cn1)[C@@H](C)O)[C@@H](C)O)C(C)C)[C@@H](C)O)C(=O)N[C@@H](CCC(=O)O)C(=O)N[C@@H](Cc1c[nH]cn1)C(=O)N[C@@H](CC(C)C)C(=O)N[C@H](C(N)=O)C(C)C [compound 162] (H-H[Aib]EGTFTSDVSYLK([AEEA-AEEA-γGlu-C20 diacid])EEA[Aib]TQRFLEHLV-NH2) | 0.08 | 4281 | – | 178176 | 126 nM | – | – | –
CC(C)C[C@H](NC(=O)[C@H](Cc1ccccc1)NC(=O)[C@H](CCCNC(=N)N)NC(=O)[C@H](CCC(N)=O)NC(=O)[C@H](C)NC(=O)[C@H](C)NC(=O)[C@H](C)NC(=O)C(C)(C)NC(=O)[C@H](CCC(=O)O)NC(=O)[C@H](CCCCNC(=O)COCCOCCNC(=O)COCCOCCNC(=O)CC[C@H](NC(=O)CCCCCCCCCCCCCCCCCCC(=O)O)C(=O)O)NC(=O)[C@H](CC(C)C)NC(=O)[C@@H](NC(=O)[C@H](CO)NC(=O)[C@@H](NC(=O)[C@H](CC(=O)O)NC(=O)[C@H](CO)NC(=O)[C@@H](NC(=O)[C@H](Cc1ccccc1)NC(=O)[C@@H](NC(=O)CNC(=O)[C@H](CCC(=O)O)NC(=O)C(C)(C)NC(=O)[C@@H](N)Cc1c[nH]cn1)[C@@H](C)O)[C@@H](C)O)C(C)C)C(C)C)C(=O)N[C@@H](CCC(=O)O)C(=O)N[C@@H](Cc1c[nH]cn1)C(=O)N[C@@H](CC(C)C)C(=O)N[C@H](C(N)=O)C(C)C [compound 15] (H-H[Aib]EGTFTSDVSVLK([AEEA-AEEA-γGlu-C20 diacid])E[Aib]AAAQRFLEHLV-NH2) | 0.09 | 12385 | – | – | – | 3961 | 0.0794 nM | 316 nM
